Laboratory results reported in ChEMBL document CHEMBL1150872, “Four new bioactive lobane diterpenes of the soft coral Lobophytum pauciflorum from Mindoro, Philippines” (J Nat Prod, 1998).
≈ marks a conversion by molar mass, not a printed value. Calls of active or inactive are those of the source. The rule behind the calls is not given here.

Columns and labels:
Cladosporium cucumerinum [1] = assay: Antifungal activity against Cladosporium cucumerinum at 0.8 umol after 2 days; type: functional
Cladosporium cucumerinum [2] = assay: Antifungal activity against Cladosporium cucumerinum at 0.4 umol after 2 days; type: functional
Cladosporium cucumerinum [3] = assay: Antifungal activity against Cladosporium cucumerinum at 0.2 umol after 2 days; type: functional
Cladosporium cucumerinum [4] = assay: Antifungal activity against Cladosporium cucumerinum at 0.1 umol after 2 days; type: functional
[5] = Toxicity in Artemia salina after 48 hrs; type: organism-based; details: in vivo
Bacillus subtilis = assay: Antibacterial activity against Bacillus subtilis 168 after 24 hrs by agar diffusion assay; type: functional, subsp. subtilis str. 168
Saccharomyces cerevisiae = assay: Antifungal activity against Saccharomyces cerevisiae after 2 days; type: functional
Staphylococcus aureus = assay: Antibacterial activity against Staphylococcus aureus […] after 24 hrs by agar diffusion assay; type: functional, organism-based
Escherichia coli = assay: Antibacterial activity against Escherichia coli ATCC 25922 after 24 hrs by agar diffusion assay; type: functional, organism-based

| Compound | inhibition zone (IZ) (Cladosporium cucumerinum [1]) [mm] | inhibition zone (IZ) (Cladosporium cucumerinum [2]) [mm] | inhibition zone (IZ) (Cladosporium cucumerinum [3]) [mm] | inhibition zone (IZ) (Cladosporium cucumerinum [4]) [mm] | LC50 at 48 h [5] [µg/mL] | inhibition zone (IZ) (Bacillus subtilis) [mm] | inhibition zone (IZ) (Saccharomyces cerevisiae) [mm] | Activity (Staphylococcus aureus) | Activity (Escherichia coli) |
| --- | --- | --- | --- | --- | --- | --- | --- | --- | --- |
| C=C[C@@]1(C)CC[C@H](/C(C)=C/C=C/C(C)(C)O)C[C@@H]1C(=C)C [FUSCOL] | 2 | 0 | 0 | 0 | 4.18 (≈ 14.5 µM) |  |  |  |  |
| C=C[C@@]1(C)CC[C@H](/C(=C/C[C@@H](O)C(C)(C)O)COC(C)=O)C[C@@H]1C(=C)C | 30 | 20 | 10 | 5 | 59 (≈ 162 µM) |  |  |  |  |
| C=C[C@@]1(C)CC[C@H](/C(C)=C/C[C@@H](O)C(C)(C)O)C[C@@H]1C(=C)C | 17 | 14 | 9 | 6 | 10.5 (≈ 34.3 µM) |  |  |  |  |
| C=C[C@@]1(C)CC[C@H](/C(C)=C/C[C@H]2OC2(C)C)C[C@@H]1C(=C)C | 5 | 0 | 0 | 0 | 0.64 (≈ 2.22 µM) |  |  |  |  |
| C=C[C@@]1(C)CC[C@H](C2=CC[C@H](C(C)(C)O)OC2=O)C[C@@H]1C(=C)C [LOBATRIENOLIDE] | 15 | 13 | 9 | 6 |  |  |  |  |  |
| C=C[C@@]1(C)CC[C@H](C2=CCC(O)C(C)(C)OC2)C[C@@H]1C(=C)C (stereo partly drawn) | 17 | 14 | 10 | 5 |  |  |  |  |  |
| C=C[C@@]1(C)CC[C@H](/C(=C/C[C@@H](OC(C)=O)C(C)(C)O)COC(C)=O)C[C@@H]1C(=C)C | 15 | 13 | 10 | 5 | 60.4 (≈ 149 µM) |  |  |  |  |
| COC1=C(C)C(=O)c2cc(=O)n(C)c(C)c2C1=O [MIMOSAMYCIN] |  | 18 | 15 |  |  |  |  |  |  |
| C=C[C@@]1(C)CC[C@H](C2=CC[C@H](C(C)(C)OC(C)=O)OC2)C[C@@H]1C(=C)C |  | 10 | 8 | 6 | 34 (≈ 98 µM) |  |  |  |  |
| C=C[C@@]1(C)CC[C@H](/C(C)=C/C[C@@H](OC(C)=O)C(C)(C)O)C[C@@H]1C(=C)C | 13 | 9 | 5 | 2 | 19.1 (≈ 54.8 µM) |  |  |  |  |
| C=C[C@@]1(C)CC[C@H](C2=CC[C@H](C(C)(C)O)OC2)C[C@@H]1C(=C)C [LOBATRIENE] | 15 | 14 | 10 | 5 | 19.8 (≈ 65 µM) | 8 | 7 | inactive | inactive |
